Reference: PubChem BioAssay (NCI)
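Results reflect a 48-hour exposure of cells in 96-well plates to compound at five concentrations. TGI is the concentration that stops growth completely.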

Assays:
Experiment in all cases: growth of human tumour cells (NCI), 48 h
786-0 renal = tested on: 786-0 renal
A498 renal = tested on: A498 renal
A549 NSCLC = tested on: A549 NSCLC
ACHN renal = tested on: ACHN renal
BT-549 breast = tested on: BT-549 breast
CAKI-1 renal = tested on: CAKI-1 renal
COLO 205 colon = tested on: COLO 205 colon
DU-145 prostate = tested on: DU-145 prostate
EKVX NSCLC = tested on: EKVX NSCLC
HCC-2998 colon = tested on: HCC-2998 colon
HCT-116 colon = tested on: HCT-116 colon
HCT-15 colon = tested on: HCT-15 colon
HL-60(TB) leukemia = tested on: HL-60(TB) leukemia
HOP-62 NSCLC = tested on: HOP-62 NSCLC
HOP-92 NSCLC = tested on: HOP-92 NSCLC
HS 578T breast = tested on: HS 578T breast
HT29 colon = tested on: HT29 colon
IGROV1 ovarian = tested on: IGROV1 ovarian
K-562 leukemia = tested on: K-562 leukemia
KM12 colon = tested on: KM12 colon
LOX IMVI melanoma = tested on: LOX IMVI melanoma
M14 melanoma = tested on: M14 melanoma
MALME-3M melanoma = tested on: MALME-3M melanoma
MCF7 breast = tested on: MCF7 breast
MDA-MB-231 breast = tested on: MDA-MB-231 breast
MDA-MB-435 = tested on: MDA-MB-435
MDA-N = tested on: MDA-N
MOLT-4 leukemia = tested on: MOLT-4 leukemia
NCI-H226 lung = tested on: NCI-H226 lung
NCI-H23 lung = tested on: NCI-H23 lung
NCI-H460 lung = tested on: NCI-H460 lung
NCI-H522 lung = tested on: NCI-H522 lung
NCI/ADR-RES ovarian = tested on: NCI/ADR-RES ovarian
OVCAR-3 ovarian = tested on: OVCAR-3 ovarian
OVCAR-4 ovarian = tested on: OVCAR-4 ovarian
OVCAR-5 ovarian = tested on: OVCAR-5 ovarian
OVCAR-8 ovarian = tested on: OVCAR-8 ovarian
PC-3 prostate = tested on: PC-3 prostate
RPMI-8226 leukemia = tested on: RPMI-8226 leukemia
RXF 393 renal = tested on: RXF 393 renal
SF-268 CNS = tested on: SF-268 CNS
SF-295 CNS = tested on: SF-295 CNS
SF-539 CNS = tested on: SF-539 CNS
SK-MEL-2 melanoma = tested on: SK-MEL-2 melanoma
SK-MEL-28 melanoma = tested on: SK-MEL-28 melanoma
SK-MEL-5 melanoma = tested on: SK-MEL-5 melanoma
SN12C renal = tested on: SN12C renal
SNB-19 CNS = tested on: SNB-19 CNS
SR leukemia = tested on: SR leukemia
SW-620 colon = tested on: SW-620 colon
TK-10 renal = tested on: TK-10 renal
U251 CNS = tested on: U251 CNS
UACC-257 melanoma = tested on: UACC-257 melanoma
UACC-62 melanoma = tested on: UACC-62 melanoma
UO-31 renal = tested on: UO-31 renal

Which results are given for C=C(C)C[C@H](Sc1nc2ccccc2s1)[C@H](C)O?
TGI (786-0 renal): > 100 µM; TGI (A498 renal): 79 µM; TGI (A549 NSCLC): > 100 µM; TGI (ACHN renal): > 100 µM; TGI (BT-549 breast): > 100 µM; TGI (CAKI-1 renal): > 100 µM; TGI (COLO 205 colon): > 100 µM; TGI (DU-145 prostate): > 100 µM; TGI (EKVX NSCLC): > 100 µM; TGI (HCC-2998 colon): > 100 µM; TGI (HCT-116 colon): > 100 µM; TGI (HCT-15 colon): > 100 µM; TGI (HL-60(TB) leukemia): 44.9 µM; TGI (HOP-62 NSCLC): > 100 µM; TGI (HOP-92 NSCLC): > 100 µM; TGI (HS 578T breast): > 100 µM; TGI (HT29 colon): > 100 µM; TGI (IGROV1 ovarian): > 100 µM; TGI (K-562 leukemia): > 100 µM; TGI (KM12 colon): > 100 µM; TGI (LOX IMVI melanoma): > 100 µM; TGI (M14 melanoma): > 100 µM; TGI (MALME-3M melanoma): 72 µM; TGI (MCF7 breast): > 100 µM; TGI (MDA-MB-231 breast): > 100 µM; TGI (MDA-MB-435): > 100 µM; TGI (MDA-N): > 100 µM; TGI (MOLT-4 leukemia): 43 µM; TGI (NCI-H226 lung): 74.1 µM; TGI (NCI-H23 lung): > 100 µM; TGI (NCI-H460 lung): > 100 µM; TGI (NCI-H522 lung): 81.9 µM; TGI (NCI/ADR-RES ovarian): > 100 µM; TGI (OVCAR-3 ovarian): 75.7 µM; TGI (OVCAR-4 ovarian): > 100 µM; TGI (OVCAR-5 ovarian): > 100 µM; TGI (OVCAR-8 ovarian): > 100 µM; TGI (PC-3 prostate): 63.8 µM; TGI (RPMI-8226 leukemia): 98.4 µM; TGI (RXF 393 renal): > 100 µM; TGI (SF-268 CNS): > 100 µM; TGI (SF-295 CNS): > 100 µM; TGI (SF-539 CNS): > 100 µM; TGI (SK-MEL-2 melanoma): 69.9 µM; TGI (SK-MEL-28 melanoma): > 100 µM; TGI (SK-MEL-5 melanoma): 36.8 µM; TGI (SN12C renal): > 100 µM; TGI (SNB-19 CNS): > 100 µM; TGI (SR leukemia): > 100 µM; TGI (SW-620 colon): > 100 µM; TGI (TK-10 renal): > 100 µM; TGI (U251 CNS): > 100 µM; TGI (UACC-257 melanoma): > 100 µM; TGI (UACC-62 melanoma): > 100 µM; TGI (UO-31 renal): > 100 µM
